Test results taken from the Biogen ADME set (Fang et al. 2023).
Values after ≈ are worked out from the molar mass of the structure shown.

Details: for aqueous solubility: pH 6.8

| intrinsic clearance, human liver microsomes | intrinsic clearance, rat liver microsomes | aqueous solubility | MDR1-MDCK efflux ratio | fraction unbound, human plasma | fraction unbound, rat plasma | Structure (SMILES) |
| --- | --- | --- | --- | --- | --- | --- |
| 22.7 mL/min/kg | 169 mL/min/kg | – | 1.98 | – | – | COc1ccccc1-c1cc(C(C)(C)C)nc(-c2ncccn2)n1 |
| 92.7 mL/min/kg | 2190 mL/min/kg | 34.9 µg/mL (≈ 116 µM) | 0.538 | – | – | O=S(=O)(Cc1csc(C2CCCC2)n1)C1CCCC1 |
| ≤ 4.74 mL/min/kg | ≤ 10.7 mL/min/kg | – | 0.663 | – | – | CN(Cc1ccc(C(=O)O)cc1)C(=O)c1ccnn1C |
| 325 mL/min/kg | 1780 mL/min/kg | 22.2 µg/mL (≈ 67.8 µM) | 1.01 | – | – | CC(C)c1cc(CN(C)Cc2c[nH]nc2-c2ccc(F)cc2)no1 |
| 119 mL/min/kg | 2660 mL/min/kg | – | 1.59 | – | – | CSc1ccc(C(=O)Nc2cccc(C(=O)NCC(C)C)c2)cc1 |
| 136 mL/min/kg | 105 mL/min/kg | 3.23 µg/mL (≈ 5.72 µM) | 14.1 | – | – | Cc1c(CN2CCC(Nc3ncnc4sc(CC(F)(F)F)cc34)CC2)ccc2c1cc(C#N)n2Cc1cn[nH]c1 |
| 25.9 mL/min/kg | – | – | 0.239 | 0.696 | 0.845 | O=C(NC1CCNCC1)c1ccc2[nH]ncc2c1 |
| ≤ 4.74 mL/min/kg | 87.7 mL/min/kg | 49.9 µg/mL (≈ 128 µM) | 82.1 | – | – | CNC(=O)CN1CCCN(C(=O)c2c(C)nn(-c3ccccc3)c2Cl)CC1 |
| 7.61 mL/min/kg | 17.5 mL/min/kg | – | – | – | – | CCOc1cc(-c2nnc(NC(=O)c3cccc(C(F)(F)F)c3)o2)cc(OCC)c1OCC |
| 19.7 mL/min/kg | 492 mL/min/kg | – | 50.9 | – | – | CC(C)Oc1ccc(CCNC(=O)N2CCC[C@H]2C(=O)N2CCCCC2)cc1 |
| 141 mL/min/kg | 643 mL/min/kg | 24.6 µg/mL (≈ 59.9 µM) | 1.09 | – | – | Cc1ccc(NC(=O)CN2CCCN(c3ccc(C(F)(F)F)cn3)CC2)c(F)c1 |
| – | – | 2.41 µg/mL (≈ 7.51 µM) | – | – | – | CN(C)C(=O)Cc1nc(-c2cc3cc(Cl)ccc3o2)cs1 |
| 22.7 mL/min/kg | 106 mL/min/kg | 31 µg/mL (≈ 83.3 µM) | 0.655 | – | – | Cc1csc(N2CCN(Cc3ccc(OCC(F)(F)F)nc3)CC2)n1 |
| 7.18 mL/min/kg | ≤ 10.7 mL/min/kg | 32.2 µg/mL (≈ 140 µM) | 0.593 | – | – | CCn1cc(NC(=O)c2ccccc2C)cn1 |
| 123 mL/min/kg | 1680 mL/min/kg | – | 9.4 | – | – | N#Cc1cc(CN2CCC(Nc3ncnc4sc(Cl)cc34)CC2)ccc1F |
| – | – | 0.26 µg/mL (≈ 0.742 µM) | – | – | – | COc1cccc(-c2nnn(-c3ncnc4sc5c(c34)CCC5)n2)c1 |

| intrinsic clearance, human liver microsomes | intrinsic clearance, rat liver microsomes | aqueous solubility | MDR1-MDCK efflux ratio | fraction unbound, human plasma | fraction unbound, rat plasma | Structure (SMILES) |
| --- | --- | --- | --- | --- | --- | --- |
| – | – | 0.35 µg/mL (≈ 1.06 µM) | 0.438 | – | – | Cc1nc(-c2ccccc2)c(C(=O)Nc2ccc(Cl)cc2)s1 |
| 7.82 mL/min/kg | 86.8 mL/min/kg | 35.9 µg/mL (≈ 137 µM) | 1.08 | – | – | COc1ccc(C(=O)N2CCCC2)cc1NC(C)C |
| 8.35 mL/min/kg | 69.8 mL/min/kg | 29.2 µg/mL (≈ 70.9 µM) | 15.4 | – | – | CC(C)(O)C(=O)N1CCC(c2ccc3c(NCc4ccccc4F)n[nH]c3n2)CC1 |
| 20.5 mL/min/kg | 157 mL/min/kg | 34.6 µg/mL (≈ 130 µM) | 0.752 | – | – | Cc1noc(NCc2cccc(-c3cccnc3)c2)n1 |
| – | – | 69.4 µg/mL (≈ 247 µM) | – | – | – | Cc1cc(NC(=O)CN(C)c2c(F)cccc2F)on1 |
| 46 mL/min/kg | 506 mL/min/kg | 55 µg/mL (≈ 167 µM) | – | – | – | CC(=O)N1CCCC(C(=O)N2CCc3c(cccc3C(C)C)C2)C1 (stereo not drawn) |
| 25.8 mL/min/kg | 70.7 mL/min/kg | 54.1 µg/mL (≈ 168 µM) | 3.78 | – | – | CCNC(=O)c1cc(C2CC2)nc2c1c(C)nn2-c1ccccn1 |
| 15.1 mL/min/kg | 2320 mL/min/kg | – | 0.658 | – | – | CCN(C)S(=O)(=O)N(C)Cc1cnc2ccccc2c1 |
| 35.7 mL/min/kg | 1530 mL/min/kg | 23.6 µg/mL (≈ 95.1 µM) | 0.646 | – | – | Cc1nnc(N2CCCSCC2)c(C#N)c1C |
| ≤ 4.74 mL/min/kg | ≤ 10.7 mL/min/kg | – | 47.5 | – | – | COc1cc(CN2C[C@H]3CCc4c(nc(C)[nH]c4=O)[C@H]3C2)cc(OC)c1OC |
| 391 mL/min/kg | 1930 mL/min/kg | 19.1 µg/mL (≈ 45.1 µM) | 0.969 | – | – | COc1ccc(NC(=O)C(C)N2CCCN(c3ccc(C(F)(F)F)cn3)CC2)cc1 (stereo not drawn) |
| 33.8 mL/min/kg | 389 mL/min/kg | – | 24.3 | – | – | O=C(Cc1cn2ccccc2n1)N1CCC(n2c(=O)[nH]c3ccccc32)CC1 |
| 201 mL/min/kg | 620 mL/min/kg | 38.2 µg/mL (≈ 177 µM) | 0.419 | – | – | Cc1csc(Nc2ccc(C#N)cc2)n1 |
| 58.3 mL/min/kg | 545 mL/min/kg | 11 µg/mL (≈ 26 µM) | 0.872 | – | – | Cc1c(C(=O)N2CCC(C(=O)Nc3ccc4c(c3)OCO4)CC2)oc2c(F)cccc12 |
| 150 mL/min/kg | 716 mL/min/kg | 37.9 µg/mL (≈ 112 µM) | – | – | – | CC(C)n1nccc1-c1ncccc1COc1cccc(O)c1C=O |
| ≤ 4.74 mL/min/kg | 84 mL/min/kg | 52.6 µg/mL (≈ 173 µM) | 12.5 | – | – | O=c1ccc(C2CC2)nn1CC1CN(CC2(O)CCCC2)C1 |

The next lines start with the compound.

| Structure (SMILES) | intrinsic clearance, human liver microsomes | intrinsic clearance, rat liver microsomes | aqueous solubility | MDR1-MDCK efflux ratio | fraction unbound, human plasma | fraction unbound, rat plasma |
| --- | --- | --- | --- | --- | --- | --- |
| CCOc1cc(CNc2ccc(N3CCOCC3)c(C(=O)O)c2)cc(Cl)c1OC | 21.1 mL/min/kg | 154 mL/min/kg | 22.7 µg/mL (≈ 54 µM) | – | – | – |
| CN(CCCC1CCCC1)Cc1cc(=O)[nH]c(=O)[nH]1 | 7.57 mL/min/kg | 165 mL/min/kg | – | 0.839 | – | – |
| Cc1ccc(S(=O)(=O)N2CCC[C@H](C(=O)NC3CCOCC3)C2)cc1 | ≤ 4.74 mL/min/kg | 581 mL/min/kg | 54.1 µg/mL (≈ 148 µM) | 20.9 | – | – |
| O=C(NCc1cccc(O)c1)Nc1nc(-c2ccncc2)cs1 | 97.6 mL/min/kg | 246 mL/min/kg | – | – | – | – |
| Cn1c(NC(=O)C2CC2c2ccc(Cl)cc2)nc2ccccc21 (stereo not drawn) | – | – | 0.3 µg/mL (≈ 0.921 µM) | – | – | – |
| NC(CO)(CO)CCc1ccc(Sc2cccc(OCc3ccccc3)c2)cc1Cl | 6.33 mL/min/kg | 14.2 mL/min/kg | – | – | – | – |
| CC(=O)NCCOc1ccc2ccccc2n1 | 12.9 mL/min/kg | 89.1 mL/min/kg | – | – | – | – |
| Fc1ccc(Nc2nc(N3CCCCC3)c3nccnc3n2)cc1 | – | – | 0.12 µg/mL (≈ 0.37 µM) | 0.305 | – | – |
| CN(C)C1(CNC(=O)N2CCCC(C)(C)CC2)CCOCC1 | 8.43 mL/min/kg | 120 mL/min/kg | 56.9 µg/mL (≈ 183 µM) | 16.5 | – | – |
| CC(C)NCC(O)COc1cccc2ccccc12 (stereo not drawn) | – | – | – | – | – | 0.223 |
| Cc1cc(C)c(NC(=O)CN(C)c2ccc(C#N)nc2)c(C)c1 | 14.4 mL/min/kg | 75.7 mL/min/kg | – | 6.69 | – | – |
| Cc1cccc(NC(=O)c2cccnc2N2CCCCC2)n1 | 120 mL/min/kg | 1670 mL/min/kg | 27.6 µg/mL (≈ 93.1 µM) | 0.697 | – | – |
| Cc1ccc(C2(O)CCN(Cc3cn(C)c4ccc(F)cc34)CC2)cc1 | 65.2 mL/min/kg | 1790 mL/min/kg | 49.7 µg/mL (≈ 141 µM) | 0.869 | – | – |
| CSC1(CNc2cncc(Cl)n2)CCOCC1 | 10.2 mL/min/kg | 528 mL/min/kg | – | – | – | – |
| N#CC1(NC(=O)c2ccc3c(c2)OCO3)CCCC1 | ≤ 4.74 mL/min/kg | 64.9 mL/min/kg | – | – | – | – |
| CCOc1cc2nn(CCC(C)(C)O)cc2cc1NC(=O)c1cccc(C(F)F)n1 | ≤ 4.74 mL/min/kg | ≤ 10.7 mL/min/kg | 3.55 µg/mL (≈ 8.48 µM) | 11 | 0.0126 | 0.0186 |
| CNC(=O)Cc1noc(-c2ccc3ncccc3c2)n1 | ≤ 4.74 mL/min/kg | 21.8 mL/min/kg | – | – | – | – |
| CN(Cc1ccc(N)nc1)c1nc2cc(F)ccc2o1 | ≤ 4.74 mL/min/kg | 58.1 mL/min/kg | – | 33.5 | – | – |
| CC(=O)Nc1cccc(OCC(=O)N2CCCCC2)c1 | ≤ 4.74 mL/min/kg | 126 mL/min/kg | 42.4 µg/mL (≈ 153 µM) | 11.9 | – | – |
| N#Cc1cc(-c2ccccc2)sc1N | – | – | 3 µg/mL (≈ 15 µM) | – | – | – |
| COc1ccc2c(c1)CC[C@@H]1[C@@H]2CC[C@]2(C)[C@@H](NCCCCCCN3C(=O)C=CC3=O)CC[C@@H]12 | 6.09 mL/min/kg | 38.7 mL/min/kg | – | – | – | – |
| COCC1(CNC(=O)c2ccc(-n3cccn3)cc2)CCC1 | 18.2 mL/min/kg | 492 mL/min/kg | – | 0.596 | – | – |
| Cc1ccc(-c2csc(CC(N)=O)n2)cc1C | – | – | 35.9 µg/mL (≈ 146 µM) | 0.752 | – | – |
| Cc1nc(-c2ccccc2)ccc1C(=O)NC1CCCC1 | ≤ 4.74 mL/min/kg | 319 mL/min/kg | 41 µg/mL (≈ 146 µM) | – | – | – |
| Fc1cccc2c1CN(Cc1c[nH]nc1-c1cccnc1)CC2 | 92.9 mL/min/kg | 1240 mL/min/kg | – | – | – | – |
| CCn1c(=O)c2cc(OC)c(OC)cc2n(Cc2ccc(Cl)cc2)c1=O | – | – | 0.4 µg/mL (≈ 1.07 µM) | – | – | – |
| CCOc1ccc(CN[C@@H]2CCC[C@H]2Cc2cc(C)no2)cc1OC | 61.6 mL/min/kg | 2220 mL/min/kg | – | 2.55 | – | – |
| c1ccc(C(c2ccccc2)c2noc(Cn3cnc(C4CC4)n3)n2)cc1 | 38 mL/min/kg | 1510 mL/min/kg | 26.3 µg/mL (≈ 73.6 µM) | 1.14 | – | – |
| CCOc1ccc(OCCN2CCN(C(C)=O)CC2)cc1 | ≤ 4.74 mL/min/kg | 17.5 mL/min/kg | – | 0.671 | – | – |
